Laboratory results: patent publication US6509318B1, “TGF-B inhibitors and methods” (The Regents of the University of California, priority 2000, dated 2003)
Non-standard residues stand in square brackets, D forms with d. No end group written: not given here.

Legend:
[1] = tested on: mink lung epithelium MV-1-Lu cells; assay: DNA synthesis (3H-thymidine incorporation) in MV-1-Lu cells, additions alone; assay type: cell-based; details: for 3H-Thymidine Incorporation 10^3 d.p.m. ± S.D.: 24 h; for (+/−) % change over control with TGF β-1 / (+/−) % change over control when CITA is present: vs control (no additions); for decrease of DNA synthesis against the control: CITA alone, all concentrations examined (1, 10, 100 nM)
Source text: (§1) Inhibition of TGF β-1 Activity by CITAs: We have used a standardized in vitro assay for TGF β-1 as a test for the biological activity of CITAs. Our test is based on inhibiting the effect of TGF β-1 on a test cell proliferation system. In this assay, mink lung epithelium MV-1-Lu cells are exposed to TGF β-1. […] The decrease in DNA synthesis can be monitored by measuring the incorporation of labeled precursors in DNA. The incorporation of ^3H-thymidine in DNA in MV-1-Lu cells are used as a measure of cell proliferation. […] These concentrations of TGF β-1 were based on the amounts of TGF β-1 found in normal serum and in serum from patients with peritonitis, an inflammatory disease. The normal amount of TGF β-1 in human serum is approximately 2 nM (39 pG/ml). In patients with peritonitis, the amount increases to nearly 10 nM (169-216 pG/ml). The incorporation of ^3H-thymidine in the absence of TGF β-1 served as the control. To test the anti-TGF β-1 activity of CITAs, the cells were exposed to 1 nM, 10 nM, and 100 nM CITA-I, CITA-II, and CITA-III in the absence and in the presence of 5.0 nM and 10.0 nM TGF β-1.
(§2) Details of Experimental Procedures: 10^4 MV-1-Lu were plated in each well of a 12 well plate in 2.0 ml minimum essential medium containing non-essential amino acids (MEM) and 10% fetal bovine serum. After 24 hours, the medium was placed with serum free MEM and the cells were further cultured for two hours before the medium was placed with serum free MEM containing the test additives. After exposure to the test medium for 24 hours, the cells were pulse labeled for two hours with 0.5 μCi (methyl-^3H)-thymidine, (specific activity 60 Ci/mmol). After pulse labeling, the radioactive medium was removed, and the cells were washed 1× with 10% trichloracetic acid (TCA), 2× with 5% TCA, then 2× with phosphate buffered saline containing 50 μg/ml non-radioactive thymidine. The wash solutions were monitored to establish that no further unbound radioactive thymidine remained. The washed cell layers were dissolved in 1 ml 0.1 N NaOH containing 1% sodium dodecyl sulfate. The radioactivity in the solution was measured in a scintillation counter and expressed as disintegrations per minute (d.p.m.). Each test was carried out in quadruplicate, and the data presented as mean±standard deviation.

[2] = tested on: TGF β-1; assay: Inhibition of TGF β-1 activity by CITAs: reversal of TGF β-1 inhibition of DNA synthesis in MV-1-Lu cells; assay type: cell-based; details: for DNA synthesis restored, relative to the level seen with TGF β-1: MV-1-Lu cells exposed to 5 nM TGF β-1, all concentrations of CITAs; for reversal of the inhibition of DNA synthesis caused by TGF β-1 / 3H-Thymidine Incorporation 10^3 d.p.m. ± S.D.: MV-1-Lu cells; for reversal of the inhibition of DNA synthesis caused by TGF β-1: TGF β-1 5 nM and 10 nM; for 3H-Thymidine Incorporation 10^3 d.p.m. ± S.D.: 24 h; for (+/−) % change over control when CITA is present: vs control (no additions)
Source text: as §1, §2

[3] = CITA 1 nM alone, no TGF β-1, MV-1-Lu cells
[4] = CITA 10 nM alone, no TGF β-1, MV-1-Lu cells
[5] = CITA 100 nM alone, no TGF β-1, MV-1-Lu cells
[6] = TGF β-1 5 nM + CITA 1 nM, relative to TGF β-1 5 nM alone
[7] = TGF β-1 5 nM + CITA 10 nM, relative to TGF β-1 5 nM alone
[8] = TGF β-1 5 nM + CITA 100 nM, relative to TGF β-1 5 nM alone
[9] = TGF β-1 10 nM + CITA 1 nM, relative to TGF β-1 10 nM alone
[10] = TGF β-1 10 nM + CITA 10 nM, relative to TGF β-1 10 nM alone
[11] = TGF β-1 10 nM + CITA 100 nM, relative to TGF β-1 10 nM alone

Substance | 3H-Thymidine Incorporation 10^3 d.p.m. ± S.D. [1, 3] | (+/−) % change over control when CITA is present ([1]; CITA 1 nM alone, no TGF β-1) | 3H-Thymidine Incorporation 10^3 d.p.m. ± S.D. [1, 4] | (+/−) % change over control when CITA is present ([1]; CITA 10 nM alone, no TGF β-1) | 3H-Thymidine Incorporation 10^3 d.p.m. ± S.D. [1, 5] | (+/−) % change over control when CITA is present ([1]; CITA 100 nM alone, no TGF β-1) | decrease of DNA synthesis against the control [1] | DNA synthesis restored, relative to the level seen with TGF β-1 [2] | reversal of the inhibition of DNA synthesis caused by TGF β-1 [2] | % Increase over TGF β-1. TGF β-1 + CITA/TGF β-1 × 100 [2, 6] | 3H-Thymidine Incorporation 10^3 d.p.m. ± S.D. ([2]; TGF β-1 5 nM + CITA 1 nM) | (+/−) % change over control when CITA is present ([2]; TGF β-1 5 nM + CITA 1 nM) | % Increase over TGF β-1. TGF β-1 + CITA/TGF β-1 × 100 [2, 7] | 3H-Thymidine Incorporation 10^3 d.p.m. ± S.D. ([2]; TGF β-1 5 nM + CITA 10 nM) | (+/−) % change over control when CITA is present ([2]; TGF β-1 5 nM + CITA 10 nM) | % Increase over TGF β-1. TGF β-1 + CITA/TGF β-1 × 100 [2, 8] | 3H-Thymidine Incorporation 10^3 d.p.m. ± S.D. ([2]; TGF β-1 5 nM + CITA 100 nM) | (+/−) % change over control when CITA is present ([2]; TGF β-1 5 nM + CITA 100 nM) | % Increase over TGF β-1. TGF β-1 + CITA/TGF β-1 × 100 [2, 9] | 3H-Thymidine Incorporation 10^3 d.p.m. ± S.D. ([2]; TGF β-1 10 nM + CITA 1 nM) | further results
TGF β-1: transforming growth factor β-1, growth factor protein used to inhibit DNA synthesis of MV-1-Lu cells | – | – | – | – | – | – | – | – | – | – | – | – | – | – | – | – | – | – | – | – | 3H-Thymidine Incorporation 10^3 d.p.m. ± S.D. ([1]; TGF β-1 5 nM alone, MV-1-Lu cells): 16.43 ± 2.95 10^3 d.p.m.; (+/−) % change over control with TGF β-1 ([1]; TGF β-1 5 nM alone): −72%; decrease of DNA synthesis ([1]; TGF β-1 5.0 nM, MV-1-Lu cells): approximately 70%; 3H-Thymidine Incorporation 10^3 d.p.m. ± S.D. ([1]; TGF β-1 10 nM alone, MV-1-Lu cells): 1.91 ± 0.08 10^3 d.p.m.; (+/−) % change over control with TGF β-1 ([1]; TGF β-1 10 nM alone): −97%; inhibition of DNA synthesis ([1]; TGF β-1 10 nM, MV-1-Lu cells): ~97%
Leu-Ile-Ala-Pro-D-Glu-Ala (LIAP[dE]A) [CITA-I] | 46.46 ± 2.48 10^3 d.p.m. | −19% | 44.93 ± 3.34 10^3 d.p.m. | −21% | 45.10 ± 1.27 10^3 d.p.m. | −22% | approximately 20% | 2 × | markedly reversed the inhibition of DNA synthesis | 250% | 41.05 ± 2.04 10^3 d.p.m. | −29% | 194% | 31.88 ± 2.32 10^3 d.p.m. | −45% | 181% | 29.70 ± 2.79 10^3 d.p.m. | −49% | 1113% | 21.26 ± 1.30 10^3 d.p.m. | (+/−) % change over control when CITA is present ([2]; TGF β-1 10 nM + CITA 1 nM): −63%; % Increase over TGF β-1. TGF β-1 + CITA/TGF β-1 × 100 [2, 10]: 1373%; 3H-Thymidine Incorporation 10^3 d.p.m. ± S.D. ([2]; TGF β-1 10 nM + CITA 10 nM): 26.23 ± 2.73 10^3 d.p.m.; (+/−) % change over control when CITA is present ([2]; TGF β-1 10 nM + CITA 10 nM): −55%; % Increase over TGF β-1. TGF β-1 + CITA/TGF β-1 × 100 [2, 11]: 906%; 3H-Thymidine Incorporation 10^3 d.p.m. ± S.D. ([2]; TGF β-1 10 nM + CITA 100 nM): 17.30 ± 2.19 10^3 d.p.m.; (+/−) % change over control when CITA is present ([2]; TGF β-1 10 nM + CITA 100 nM): −70%; increase in DNA synthesis in the inhibited cells ([2]; cells severely inhibited by 10 nM TGF β-1, all concentrations of CITA-I): over 10 fold
Leu-Phe-Ala-Pro-D-Glu-Ala (LFAP[dE]A) [CITA-III] | 44.67 ± 2.26 10^3 d.p.m. | −23% | 47.19 ± 3.00 10^3 d.p.m. | −18% | 44.36 ± 1.76 10^3 d.p.m. | −23% | approximately 20% | 2 × | markedly reversed the inhibition of DNA synthesis | 207% | 34.00 ± 0.86 10^3 d.p.m. | −41% | 207% | 34.03 ± 1.11 10^3 d.p.m. | −41% | 184% | 30.23 ± 1.69 10^3 d.p.m. | −48% | 1275% | 24.36 ± 1.14 10^3 d.p.m. | (+/−) % change over control when CITA is present ([2]; TGF β-1 10 nM + CITA 1 nM): −58%; % Increase over TGF β-1. TGF β-1 + CITA/TGF β-1 × 100 [2, 10]: 997%; 3H-Thymidine Incorporation 10^3 d.p.m. ± S.D. ([2]; TGF β-1 10 nM + CITA 10 nM): 19.04 ± 1.47 10^3 d.p.m.; (+/−) % change over control when CITA is present ([2]; TGF β-1 10 nM + CITA 10 nM): −67%; % Increase over TGF β-1. TGF β-1 + CITA/TGF β-1 × 100 [2, 11]: 907%; 3H-Thymidine Incorporation 10^3 d.p.m. ± S.D. ([2]; TGF β-1 10 nM + CITA 100 nM): 17.32 ± 0.27 10^3 d.p.m.; (+/−) % change over control when CITA is present ([2]; TGF β-1 10 nM + CITA 100 nM): −70%
Phe-Ile-Ala-Pro-D-Glu-Ala (FIAP[dE]A) [CITA-II] | 45.10 ± 1.27 10^3 d.p.m. | −22% | 42.03 ± 1.11 10^3 d.p.m. | −27% | 43.08 ± 1.23 10^3 d.p.m. | −25% | approximately 20% | 2 × | markedly reversed the inhibition of DNA synthesis | 184% | 31.04 ± 1.07 10^3 d.p.m. | −29% | 169% | 27.75 ± 1.50 10^3 d.p.m. | −45% | 207% | 34.00 ± 0.86 10^3 d.p.m. | −49% | 970% | 18.51 ± 1.23 10^3 d.p.m. | (+/−) % change over control when CITA is present ([2]; TGF β-1 10 nM + CITA 1 nM): −63%; % Increase over TGF β-1. TGF β-1 + CITA/TGF β-1 × 100 [2, 10]: 1084%; 3H-Thymidine Incorporation 10^3 d.p.m. ± S.D. ([2]; TGF β-1 10 nM + CITA 10 nM): 20.70 ± 2.63 10^3 d.p.m.; (+/−) % change over control when CITA is present ([2]; TGF β-1 10 nM + CITA 10 nM): −55%; % Increase over TGF β-1. TGF β-1 + CITA/TGF β-1 × 100 [2, 11]: 981%; 3H-Thymidine Incorporation 10^3 d.p.m. ± S.D. ([2]; TGF β-1 10 nM + CITA 100 nM): 18.73 ± 1.67 10^3 d.p.m.; (+/−) % change over control when CITA is present ([2]; TGF β-1 10 nM + CITA 100 nM): −70%
